Experimental data taken from the CheMixHub viscosity set.
± gives the uncertainty stated by the source.

Assay: xn = mol fraction of the nth substance listed

CCC(C)O (stereo unspecified) + O
Conditions | viscosity [mPa·s]
293.15 K, 100 kPa, x1 = 0.58 | 3.807 ± 0.011
296 K, 101 kPa, x2 = 0.1 | 3.008 ± 0.019
296 K, 101 kPa, x2 = 0.68 | 3.67 ± 0.022
297 K, 101 kPa, x2 = 0.3 | 2.923 ± 0.018
297 K, 101 kPa, x2 = 0.4 | 3.074 ± 0.018
297 K, 101 kPa, x2 = 0.5 | 3.242 ± 0.019
297 K, 101 kPa, x2 = 0.6 | 3.416 ± 0.02
303 K, 101 kPa, x1 = 0.01 | 0.9465 ± 0.0062
303 K, 101 kPa, x2 = 0.1 | 2.363 ± 0.015
303 K, 101 kPa, x2 = 0.3 | 2.38 ± 0.015
303 K, 101 kPa, x2 = 0.4 | 2.495 ± 0.015
303 K, 101 kPa, x2 = 0.5 | 2.625 ± 0.016
303 K, 101 kPa, x2 = 0.6 | 2.759 ± 0.017
303 K, 101 kPa, x2 = 0.68 | 2.853 ± 0.017
303 K, 101 kPa, x2 = 0.98 | 1.103 ± 0.0071
304 K, 101 kPa, x2 = 0.97 | 1.229 ± 0.0076
305 K, 101 kPa, x2 = 0.2 | 2.185 ± 0.014
313 K, 101 kPa, x1 = 0.01 | 0.7564 ± 0.005
313 K, 101 kPa, x2 = 0.1 | 1.715 ± 0.011
313 K, 101 kPa, x2 = 0.2 | 1.702 ± 0.011
313 K, 101 kPa, x2 = 0.3 | 1.739 ± 0.011
313 K, 101 kPa, x2 = 0.4 | 1.815 ± 0.011
313 K, 101 kPa, x2 = 0.5 | 1.903 ± 0.012
313 K, 101 kPa, x2 = 0.6 | 1.993 ± 0.012
313 K, 101 kPa, x2 = 0.68 | 2.06 ± 0.013
313 K, 101 kPa, x2 = 0.97 | 0.97 ± 0.0063
313 K, 101 kPa, x2 = 0.98 | 0.8638 ± 0.0057
323 K, 101 kPa, x1 = 0.01 | 0.622 ± 0.0043
323 K, 101 kPa, x2 = 0.1 | 1.28 ± 0.0084
323 K, 101 kPa, x2 = 0.2 | 1.28 ± 0.0083
323 K, 101 kPa, x2 = 0.3 | 1.312 ± 0.0084
323 K, 101 kPa, x2 = 0.4 | 1.364 ± 0.0087
323 K, 101 kPa, x2 = 0.5 | 1.427 ± 0.009
323 K, 101 kPa, x2 = 0.6 | 1.492 ± 0.0093
323 K, 101 kPa, x2 = 0.68 | 1.541 ± 0.0095
323 K, 101 kPa, x2 = 0.97 | 0.773 ± 0.0051
323 K, 101 kPa, x2 = 0.98 | 0.6986 ± 0.0047
323.15 K, 100 kPa, x1 = 0.02 | 1.324 ± 0.004
323.15 K, 100 kPa, x1 = 0.58 | 1.517 ± 0.0046

O=P([O-])(O)O.[Na+] + O
viscosity [mPa·s]
Conditions | 298.15 K | 303.15 K | 308.15 K | 313.15 K
101 kPa, x1 = 0.0018 | 0.9216 ± 0.0082 | 0.8373 ± 0.0077 | 0.7482 ± 0.0072 | –
101 kPa, x1 = 0.0054 | 0.9881 ± 0.009 | 0.887 ± 0.0081 | 0.8017 ± 0.0074 | –
101 kPa, x1 = 0.0089 | 1.077 ± 0.0096 | 0.9691 ± 0.0088 | 0.8669 ± 0.0082 | –
101 kPa, x1 = 0.012 | 1.17 ± 0.01 | 1.053 ± 0.0096 | 0.9301 ± 0.0089 | –
101 kPa, x1 = 0.016 | 1.284 ± 0.011 | 1.151 ± 0.011 | 1.008 ± 0.0099 | –
101.32 kPa, x1 = 0.1245 | 20.44 ± 2.1 | – | – | –
101.32 kPa, x1 = 0.1772 | – | – | – | 28.59 ± 2.9

CCCCn1cc[n+](C)c1.F[B-](F)(F)F + CC#N
Conditions | viscosity [mPa·s]
298.15 K, 101 kPa, x2 = 0.0956 | 79.7 ± 16

CCC(C)O (stereo unspecified) + CO
298.15 K, 101.33 kPa
Conditions | viscosity [mPa·s]
x2 = 0.1153 | 2.681 ± 0.048
x2 = 0.2124 | 2.341 ± 0.042
x2 = 0.2972 | 2.063 ± 0.037
x2 = 0.3974 | 1.765 ± 0.032
x2 = 0.4714 | 1.563 ± 0.028
x2 = 0.5959 | 1.263 ± 0.023
x2 = 0.671 | 1.102 ± 0.02
x2 = 0.8045 | 0.852 ± 0.016
x2 = 0.8927 | 0.711 ± 0.014

CCCCCCCCCCCCCCCCCC(=O)O + CN1CCC[C@H]1c1cccnc1
viscosity [mPa·s], 101 kPa
Conditions | x2 = 0.3991 | x2 = 0.4952 | x2 = 0.6034 | x2 = 0.6986 | x2 = 0.7961 | x2 = 0.8973
298.15 K | – | – | – | 21.18 ± 0.24 | 14.22 ± 0.17 | 7.79 ± 0.096
323.15 K | 26.04 ± 0.26 | 18.6 ± 0.2 | 12.3 ± 0.14 | 8.571 ± 0.11 | 6.045 ± 0.081 | 4.003 ± 0.053

Cc1cccc(C)c1 + CCCCCCCCCCO
viscosity [mPa·s], 101 kPa
Conditions | 298.15 K | 308.15 K
x1 = 0.0627 | 9.938 ± 0.068 | 6.871 ± 0.049
x1 = 0.1424 | 7.856 ± 0.055 | 5.489 ± 0.04
x1 = 0.2052 | 6.481 ± 0.046 | 4.577 ± 0.034
x1 = 0.2618 | 5.435 ± 0.04 | 3.88 ± 0.029
x1 = 0.3217 | 4.497 ± 0.034 | 3.243 ± 0.024
x1 = 0.3934 | 3.563 ± 0.027 | 2.622 ± 0.02
x1 = 0.4989 | 2.534 ± 0.019 | 1.912 ± 0.015
x1 = 0.5581 | 2.095 ± 0.016 | 1.617 ± 0.013
x1 = 0.6343 | 1.645 ± 0.014 | 1.299 ± 0.011
x1 = 0.7131 | 1.292 ± 0.011 | 1.045 ± 0.01
x1 = 0.7991 | 1.001 ± 0.01 | 0.835 ± 0.009
x1 = 0.8465 | 0.874 ± 0.009 | 0.742 ± 0.008
x1 = 0.8964 | 0.762 ± 0.008 | 0.662 ± 0.008
x1 = 0.9421 | 0.674 ± 0.008 | 0.599 ± 0.008

O=S1(=O)CCCC1 + CC(C)(C)O
viscosity [mPa·s], 101 kPa
Conditions | x1 = 0.1916 | x1 = 0.2786 | x1 = 0.3584 | x1 = 0.4717 | x1 = 0.5569 | x1 = 0.6312 | x1 = 0.732 | x1 = 0.8339 | x1 = 0.9188
303.15 K | 2.995 ± 0.037 | 3.12 ± 0.036 | 3.325 ± 0.039 | 3.712 ± 0.044 | 4.135 ± 0.049 | 4.595 ± 0.056 | 5.495 ± 0.068 | 6.747 ± 0.085 | 8.277 ± 0.11
308.15 K | 2.513 ± 0.029 | 2.644 ± 0.031 | 2.844 ± 0.033 | 3.213 ± 0.038 | 3.602 ± 0.043 | 4.022 ± 0.048 | 4.832 ± 0.059 | 5.938 ± 0.074 | 7.276 ± 0.092
313.15 K | 2.121 ± 0.024 | 2.266 ± 0.026 | 2.467 ± 0.029 | 2.806 ± 0.033 | 3.169 ± 0.037 | 3.553 ± 0.042 | 4.285 ± 0.051 | 5.264 ± 0.064 | 6.424 ± 0.08

CCCCOCCOCCO + ClCCl
298.15 K, 101.33 kPa
Conditions | viscosity [mPa·s]
x1 = 0.0047 | 0.418 ± 0.012
x1 = 0.012 | 0.433 ± 0.013
x1 = 0.02 | 0.448 ± 0.013
x1 = 0.0388 | 0.48 ± 0.014
x1 = 0.0685 | 0.56 ± 0.015
x1 = 0.1079 | 0.649 ± 0.017
x1 = 0.1533 | 0.78 ± 0.02
x1 = 0.1882 | 0.907 ± 0.023
x1 = 0.2206 | 1.028 ± 0.026
x1 = 0.2751 | 1.226 ± 0.03
x1 = 0.3166 | 1.409 ± 0.034
x1 = 0.3515 | 1.576 ± 0.038
x1 = 0.397 | 1.807 ± 0.043
x1 = 0.4383 | 2.028 ± 0.048
x1 = 0.4759 | 2.224 ± 0.052
x1 = 0.5118 | 2.425 ± 0.056
x1 = 0.5496 | 2.627 ± 0.061
x1 = 0.6026 | 2.965 ± 0.068
x1 = 0.6535 | 3.267 ± 0.074
x1 = 0.7124 | 3.628 ± 0.082
x1 = 0.7606 | 3.893 ± 0.088
x1 = 0.8051 | 4.163 ± 0.094
x1 = 0.854 | 4.458 ± 0.1
x1 = 0.9019 | 4.724 ± 0.11
x1 = 0.9342 | 4.893 ± 0.11
x1 = 0.9731 | 5.104 ± 0.11

CCC(C)O (stereo unspecified) + CC#N
Conditions | viscosity [mPa·s]
293.15 K, 101 kPa, x2 = 0.1644 | 1.655 ± 0.019

CCC(C)O (stereo unspecified) + c1ccccc1
303 K, 101.3 kPa
Conditions | viscosity [mPa·s]
x2 = 0.1032 | 1.95 ± 0.06
x2 = 0.2077 | 1.52 ± 0.052
x2 = 0.3084 | 1.204 ± 0.046
x2 = 0.4086 | 0.9692 ± 0.042
x2 = 0.511 | 0.8012 ± 0.04
x2 = 0.5989 | 0.6995 ± 0.038
x2 = 0.7027 | 0.6211 ± 0.038
x2 = 0.7981 | 0.5854 ± 0.037
x2 = 0.8973 | 0.5709 ± 0.037
